{"source": "patent US11975051B1", "about": "“Therapeutic peptides and uses thereof” (priority 2022, dated 2024)", "key": {"[1]": {"experiment": "Mouse plasma stability", "format": "in vitro ADME", "conditions": "read-out: Mouse Plasma Stability t½"}, "[2]": {"tested_on": "ALS patient-derived ASCs", "experiment": "Stressed ALS patient-derived ASCs treated with peptides, SeaHorse analytics (Example 6)", "format": "cell-based, human", "excerpt": "ALS patient-derived ASCs showing hypermetabolism and lipid sequestration were stressed and treated with peptides (shown below, column 2) and effect of the peptide measured with SeaHorse analytics."}, "[3]": {"experiment": "Pharmacokinetics in mice dosed IV, SC and PO", "format": "in vivo, mouse", "conditions": "for half-life / bioavailability / AUC(0-inf) / Cmax: mouse, in vivo, mice"}, "[4]": {"tested_on": "ALS patient derived adipose stem cells (ASCs)", "experiment": "Ionomycin-stressed ALS patient derived adipose stem cells, rescue by test compound (SeaHorse)", "format": "cell-based, human", "experimental": "Adipose stem cells (“ASCs”) derived from fat tissue harvested from an ALS patient were glycolytic showing increased proliferation and lipid accumulation in culture. An in vitro model of mitochondrial dysfunction was initiated with ALS patient derived ASCs grown in growth media. After cells were confluent, the growth media was treated with chemical stressors, such as ionomycin. Ionomycin induces cell death, apoptosis, peroxide formation, extracellular ATP, and peroxynitrites that are related to mitochondrial dysfunction. The media was exchanged and replaced with basic DMEM with 4 mM pyruvate and no additional growth factors. Test compounds were added in an effort to rescue the ionomycin treated cells. After recovery, 6 hours, the cells were measured for viability, apoptosis, peroxides, and peroxynitrites by SeaHorse analysis. The ASC patient derived cells are a good model to investigate dysregulated mitochondrial dysfunction in disease, these effects are not apparent in all ALS patient derived iPSC fibroblast cells (data not shown)."}, "[5]": {"experiment": "In vitro comparisons of Elamipretide triacetate and TVALA", "conditions": "data not shown", "experimental": "TVALA™ may be steroid sparing in diseases that involve innate immunity and autoimmune components that are traditionally treated with steroids. For example, age-related macular degeneration is treated with steroid anti-inflammatory agents. TVALA™ is used as an adjunct to traditional therapies, decreasing or eliminating the need for steroids. Another example is for renal dialysis patients, for which TVALA™ is used as adjunctive or as a replacement to anti-inflammatory therapies. Elamipretide Triacetate is a small, mitochondrially-targeted d-tetrapeptide that is not entirely different from TVALA™, as both have two basic residues (Arg and Lys) and both have a d-Arg. Elamipretide triacetate appears to reduce the production of the toxic reactive oxygen species and stabilize cardiolipin to moderate mitochondrial disease."}, "[6]": {"experiment": "Rat microsomal stability", "format": "in vitro ADME", "conditions": "rat microsomes"}, "[7]": {"experiment": "Pharmacokinetics in rat (IV, SC, PO)", "conditions": "in vivo"}, "[8]": {"experiment": "Mouse (liver) microsomal stability", "format": "in vitro ADME", "conditions": "for half-life: mouse, liver microsomes"}, "[9]": {"experiment": "Dog microsomal stability", "format": "in vitro ADME", "conditions": "dog microsomes"}, "[10]": {"tested_on": "A-375 melanoma cells", "experiment": "Erastin-induced ferroptotic cell death, viability", "format": "cell-based", "conditions": "washed", "experimental": "(§1) Melanoma cell lines A-375, A-375 non-target, and A-375 (Prdx6 KO) cells were pre-incubated with TVALA™, washed, and treated with Erastin. Following treatment, the cells were evaluated for viability. […] When the cells were pre-treated with TVALA™, washed, and incubated with TVALA™ followed by treatment with Erastin, the cells were protected against Erastin-induced cell death. When A-375 non target cells or A-375 knock out cells were used there was no effect of pre-treatment followed by TVALA™ treatment as expected (data not shown)."}, "[11]": {"tested_on": "A-375 non-target cells", "experiment": "Erastin-induced ferroptotic cell death, viability", "format": "cell-based", "conditions": "pre-treatment followed by TVALA treatment; data not shown", "experimental": "as §1"}, "[12]": {"tested_on": "A-375 (Prdx6 KO) cells", "experiment": "Erastin-induced ferroptotic cell death, viability", "format": "cell-based", "conditions": "pre-treatment followed by TVALA treatment; data not shown", "experimental": "as §1"}, "[13]": {"tested_on": "SOD1^G93A mouse model of ALS", "experiment": "6-week efficacy testing of TVALA in drinking water in the SOD1^G93A mouse model of ALS", "format": "in vivo", "experimental": "A 6-week efficacy testing of test article, TVALA™, in daily drinking water, in the SOD1^G93A mouse model of ALS, with neurological scoring, neuroinflammation and axonopathy outcome measures was conducted by orally dosing with 3 mg/kg or 10 mg/kg. In phrenic nerves the axons numbers are not affected at this age, however axons start to atrophy, in femoral nerves, the mice lose axons and the remaining ones are atrophied."}, "[14]": {"experiment": "Pharmacokinetics in dog (PO)", "conditions": "in vivo, read-out: % F (PO)"}}, "note": "Entries after “also recorded” stand apart in the source; their conditions may differ. Read-outs that look alike come from different tables or passages of the source. Where a SMILES comes first, the peptide text is derived from it. [ ]: non-standard residue; d: D form."}
{"smiles": "CC(C)[C@@H](NC(=O)[C@H](N)Cc1ccc(O)cc1)C(=O)N[C@H](CC(=O)O)C(=O)N[C@H](CCCCN)C(=O)N[C@H](CCCNC(=N)N)C(=O)O", "note": "[TVALA™, H-(D-Tyr)-(D-Val)-(D-Asp)-(D-Lys)-(D-Arg)-OH] (H-[dY][dV][dD][dK][dR]-OH)", "values": [{"measurement": "half-life", "setting": "[1]", "value": "> 120", "unit": "min"}, {"measurement": "effect of the peptide measured with SeaHorse analytics", "setting": "[2]", "value": "superior to the other compounds"}, {"measurement": "half-life", "setting": "[3]; IV, read-out: IV t½, mice", "value": 6.22, "unit": "min"}, {"measurement": "bioavailability", "setting": "[3]; PO, read-out: PO % F, mice", "value": 30, "unit": "%"}, {"measurement": "AUC(0-inf)", "setting": "[3]; PO, read-out: PO AUCinf", "value": 2400, "unit": "ng·h/mL"}, {"measurement": "Cmax", "setting": "[3]; PO, read-out: PO Cmax", "value": 5290, "unit": "ng/mL"}, {"measurement": "half-life", "setting": "[3]; PO, read-out: PO t½, mice", "value": 7.36, "unit": "min"}, {"measurement": "bioavailability", "setting": "[3]; SC, read-out: SC % F, mice", "value": 52, "unit": "%"}, {"measurement": "AUC(0-inf)", "setting": "[3]; SC, read-out: SC AUCinf", "value": 355, "unit": "ng·h/mL"}, {"measurement": "Cmax", "setting": "[3]; SC, read-out: SC Cmax", "value": 674, "unit": "ng/mL"}, {"measurement": "half-life", "setting": "[3]; SC, read-out: SC t½, mice", "value": 11.9, "unit": "min"}, {"measurement": "expected impact of the oral drug on the central nervous system", "setting": "[3]; oral, based on in vivo testing (Table 4)", "value": 5, "unit": "%"}, {"measurement": "comparison with TP-5 in ALS patient derived cells", "setting": "[4]", "value": "superior to TP-5"}, {"measurement": "VEGFR2 expression", "setting": "[4]; ALS patient derived cells", "value": "normalizes"}, {"measurement": "peroxides", "setting": "[4]; ALS-ASC cells in vitro", "value": "reduces"}, {"measurement": "dysregulated mitochondrial energy metabolism", "setting": "[4]; in vitro", "value": "rescues"}, {"measurement": "extracellular ATP (eATP)", "setting": "[4]; in vitro cultured ASCs from an ALS patient", "value": "decreased"}, {"measurement": "immunomodulation compared with Elamipretide triacetate", "setting": "[5]", "value": "superior at immunomodulation"}, {"measurement": "target receptors compared with Elamipretide triacetate", "setting": "[5]", "value": "more target receptors"}, {"measurement": "half-life", "setting": "[6]", "value": "> 60", "unit": "min"}, {"measurement": "bioavailability", "setting": "[7]; PO, read-out: % F (PO)", "value": 6.7, "unit": "%"}, {"measurement": "bioavailability", "setting": "[7]; SC, read-out: % F (SC)", "value": 79.2, "unit": "%"}, {"measurement": "stability in mouse liver microsomes, half-life", "setting": "[8]; mouse liver microsomes, listed as SEQ ID NO:1", "value": "greater than 120 minutes"}, {"measurement": "half-life", "setting": "[8]; mouse liver microsomes, read-out: stability in mouse liver microsomes, half-life", "value": "> 120", "unit": "min"}, {"measurement": "half-life", "setting": "[8]; mouse microsomes, read-out: Mouse Microsomal Stability t½", "value": "> 60", "unit": "min"}, {"measurement": "half-life", "setting": "[9]", "value": "> 60", "unit": "min"}, {"measurement": "rescue against Erastin-induced cell death (viability)", "setting": "[10]; pre-incubated with peptide, treated with Erastin", "value": "did not rescue"}, {"measurement": "protection against Erastin-induced cell death (viability)", "setting": "[10]; pre-treated, incubated with peptide, followed by Erastin", "value": "protected"}, {"measurement": "effect on Erastin-induced cell death", "setting": "[11]", "value": "no effect"}, {"measurement": "effect on Erastin-induced cell death", "setting": "[12]", "value": "no effect"}, {"measurement": "neuroprotection on the phrenic and femoral motor axon sizes", "setting": "[13]; 3 mg/kg dose", "value": "very discrete neuroprotection"}, {"measurement": "effect on the neuroinflammatory marker GFAP (spinal cord)", "setting": "[13]; 3 mg/kg orally compared with 10 mg/kg orally", "value": "more significant effects than 10 mg/kg orally"}, {"measurement": "Femoral motor axon size", "setting": "[13]; 3 mg/kg orally, SOD1^G93A hemizygous mice, vs vehicle/controls", "value": "axons of slightly larger size; also recorded: slightly larger femoral motor axons than vehicle treated mice"}, {"measurement": "Phrenic nerve cross-section area (phrenic axon size)", "setting": "[13]; 10 mg/kg orally, SOD1^G93A hemizygous mice, vs vehicle/control", "value": "smallest axons; also recorded: smaller phrenic axons than vehicle treated mice"}, {"measurement": "brain inflammation", "setting": "[13]; oral administration, data not shown", "value": "not impacted"}, {"measurement": "bioavailability", "setting": "[14]", "value": 4.9, "unit": "%"}]}
